# Columns and labels:
# [1] = system: Drosophila melanogaster; assay: Test in a box (repellent effect), Drosophila melanogaster; type: in vivo; conditions: 1250 cm^3 box; for courtship and copulation in the box / survival of flies in the box: 24 hours
# Method: 2. Tests “in a Box” (Repellent Effect)
# The sensitivity of the drosophilae was evaluated over a period of between 0 minutes and 24 hours, according to the conditions (see results) in closed and transparent boxes of 1250 cm^3.
# An odor source, i.e. a composition comprising butyric acid or propionic acid in paraffin oil, was deposited on a filter paper at the base of a 50 mm petri dish. The petri dish is introduced into a test box and covered with a gauze Securimed M8202 sterile gauze pad) in order to prevent the flies from getting stuck on the oily odorous compound.
# The concentrations used were 2%, 6% or 20% propionic acid.
# A second Petri dish containing 5 to 6 grams of synthetic food used for breeding drosophilae in laboratories was placed in the test box, i.e. 6.5% maize flour, 6.5% (v/v) yeast extract, 1% (v/v) agar-agar, and 3% (v/v) of a 0.1% (v/v) antifungal solution (Tegosept (Apex)) in ethanol at 95%. This latter provides the water and/or the food which the flies needed during the test, and eliminated the possibility of an event due to dehydration of the individuals tested.
# Drosophila melanogaster or suzukii were then introduced by groups into the test box, and moved there freely over time. Their behavior in the presence of a composition as mentioned above was observed and photographed (Apple iPhone 6S).
# [2] = system: Bactrocera oleae; assay: Courtship of male Bactrocera oleae towards females, olfactory exposure; type: in vivo
# Method: 1. […] Insect Behay. 2012 [6] and Menage Cindy, personal communication). Naive males were isolated in tubes, individually, upon emerging from their puparium. The females were selected to be virgin and were stored in tubes, together. These tubes were placed in an inclined manner in incubators, for which a temperature of 25° C. was kept constant. A 12 hour/12 hour day/night cycle was applied. […] Each alveolus was cylindrical, transparent and closed, and of a volume of 5.9 cm^3. FIG. 16 is a schematic representation of an alveolus of the device used. • The papers were then each soaked in […] of a composition of 2%, 4% or 5% propionic acid. A gauze (netting) made it possible to physically isolate the B. ° lea from the odor corresponding to the propionic acid. 2 pairs (one per alveolus) were observed independently. Each pair was made up of one male and one female, each originating from the tubes mentioned above. • The behavior was filmed for 10 minutes, under white light, using a Basler acA1920-155 um USB 3.0 camera. Each film was recorded (Basler Video Recording Software V1.3) and then analyzed. For each concentration of the compositions used, the number of pairs of flies was, respectively, 2, 5, 2, 2, 2 and 6, 6, 4, 4. • A negative control was carried out comprising only the solvent, i.e. paraffin oil, in order to verify the absence of an effect of the solvent on the flies.
# A courtship percentage was calculated, and represents the time during which the male courts the female during the 10 minutes of observation (recording). The different steps consist in movement of the wings (rapid “buzzing” and/or vertical vibrations), face movements, lateral movements, “dances” in rapid circles and in the direction of the female (Benelli, J. Insect Beahv 2012 [6] and Ménagé Cindy, personal communication).
smiles,measurement,setting,value
CCC(=O)O [propionic acid],courtship and copulation in the box,[1]; 2% in paraffin oil,court and copulate
same,survival of flies in the box,[1]; 2% in paraffin oil,still alive after 24 hours
same,courtship and copulation in the box,[1]; 6% in paraffin oil,court and copulate
same,survival of flies in the box,[1]; 6% in paraffin oil,still alive after 24 hours
same,anesthesia at a distance in the box,[1]; 20% in solvent,anesthetized in the test hour
same,repellent behavior (location of flies relative to odor source),[1]; 20% in solvent,keep away from the filter paper
same,courtship of males towards females,"[2]; 2% in solvent, flies aged 3 to 6 days, compared with solvent alone",significantly reduced
same,courtship of males towards females,"[2]; 2% in solvent, flies aged 13 to 19 days, compared with solvent alone",significantly reduced
same,courtship of males towards females,"[2]; 4% in solvent, flies aged 3 to 6 days",virtually nonexistent
same,courtship of males towards females,"[2]; 5% in solvent, flies aged 3 to 6 days",virtually nonexistent
same,courtship of males towards females,"[2]; 5% in solvent, flies aged 13 to 19 days, compared with solvent alone",significantly reduced

# Reference: US20220347085A1, “REPELLENT COMPOSITION AND USES” (Université Bourgogne, priority 2019, published 2022)
